Test results from ChEMBL document CHEMBL1150227, “A new dammarane-type triterpene glycoside from Polyscias fulva” (2001).
Values after ≈ are worked out from the molar mass of the structure shown.

Assays:
[1] = tested on: Candida albicans; assay: Antifungal activity against Candida albicans; assay type: functional
[2] = tested on: Cryptococcus neoformans; assay: Antifungal activity against Cryptococcus neoformans; assay type: functional

C[C@@H]1O[C@@H](O[C@H]2[C@H](O[C@H]3CC[C@@]4(C)[C@@H](CC[C@]5(C)[C@@H]4CC=C4[C@@H]6CC(C)(C)CC[C@]6(C(=O)O)CC[C@]45C)[C@]3(C)CO)OC[C@H](O)[C@@H]2O)[C@H](O)[C@H](O)[C@H]1O [ALPHA-HEDERIN]
MIC [1]: 6.25 µg/mL (≈ 8.32 µM)
MIC [2]: 25 µg/mL (≈ 33.3 µM)
